Here are results for two substances from patent US20030108523A1, “Cancer treatment system” (priority 2001, published 2003).

The test system of one assay is NF-κB. As to conditions: U937 cells; cited from earlier work.
Another assay concerns Mesothelioma cells. As to the kind of experiment: Cell-growth inhibition assay (MTT colorimetric assay). The class given is cell-based, human. As to the method:
Various mesothelioma cell lines were established from specimens obtained from pleural effusions of patients with established pleural malignant mesothelioma. Cell cultures were performed according to standard methods. Briefly, pleural effusions were centrifuged and the cell pellets were transferred into 25 cm^2 tissue culture flasks. The medium consisted of RPMI 1640 supplemented with 10% fetal bovine serum, 2 mM glutamine, 10 mM HEPES buffer, 50 U/ml penicillin, and 50 μg/ml streptomycin. Cultures were maintained in humidified atmosphere of 5% CO2 at 37° C. and examined daily. When cells were confluent, a trypsin-EDTA mixture in PBS was used to detach the cells, and the cultures were used between passages 5 and 20.
Mesothelioma cells were counted and dispensed into eight, 96-well tissue-culture plates (Costar, Cambridge, Mass.) at a concentration of 2,000 cells/well in 100 μl of culture medium. […] Culture plates were then incubated for different times between 0 and 168 hours and cell proliferation was measured every 24 hours. […]
Cell proliferation was determined by a colorimetric assay using MTT [3(4,5-dimethylthiazol-2yl)2,5-diphenyltetrazolium bromide], a tetrazolium salt which is reduced to a colored formazan product by reducing enzymes present only in metabolically active cells. (See Alley et al., “Feasibility of drug screening with panel of human tumor cell lines using a microculture tetrazolium assay” Cancer Res. 48: 589-601, 1988.) Thus, metabolically active cells such as cells undergoing division will produce more formazan, which can be detected by a spectrophotometer.
Briefly, twenty-five μls of MTT solution were added to culture wells containing cells as described above. […] Absorption of each well was measured using a spectrophotometer at 540 nm. The effect of α-MSH on cell proliferation was determined as percent OD difference in α-MSH treated wells relative to control wells. […]
On the technique in general: Formazan colour is commonly taken as a measure of viable cells.

The conditions of assay [1]: in vivo; cited from earlier work.

On to “SYSMEHFRWGKPV (listed as Homo sapiens) [α-MSH, thirteen amino-acid peptide produced by post-translational processing of propiomelanocortin]”, for which the “NF-κB activation induced by TNF-α, endotoxin, ceramide and okadaic acid” value in the assay on NF-κB is “downregulates NF-κB activation”. In addition, in the assay with Mesothelioma cells (10^-6 to 10^-4 M, FIG. 2), the “Dose dependence of the inhibitory effect on mesothelioma cell proliferation” value is recorded as “dose-dependent”. The “Concentration at which the inhibitory effect was most significant and consistent” value in the assay with Mesothelioma cells (FIG. 2) was 10^−4 M. The “Cell proliferation of treated versus control wells, early intervals” value with Mesothelioma cells (intervals between 24 and 72 h) is “no difference in cell proliferation”.
In the case of [Nle4-D-Phe7]-α-MSH, the “Potency in reducing fever relative to the parent peptide α-MSH” value in assay [1] is “approximately ten times more potent”.
